# Experimental data taken from patent publication EP4122459A1, “COMPOSITION FOR PREVENTING AND TREATING NAIL ALTERATIONS AND DISEASES” (Giuliani S.p.A., priority 2021, dated 2023).
# System: HACAT cells
# Assay: In vitro cell proliferation test (MTT assay) on HACAT cells
# Type: cell-based, human
# Conditions: 48h, highest concentrations: Cocoa 16µg/mL, Zinc 4µg/mL
# From the text: The MTT assay (3-(4,5-dimethylthiazol-2-yl)-2,5-diphenyltetrazolium bromide) is a colorimetric assay used to evaluate in vitro cell proliferation, as it allows to measure proliferation and cell viability through the evaluation of mitochondrial activity (Mosmann et al., 1983). This method is very useful to measure cell growth following treatment with mitogenic agents, antigenic stimuli, growth factors and for cytotoxicity studies. […] Formazan forms crystals, insoluble in the intracellular environment, to which the membranes are substantially impermeable: the molecule can therefore enter the cell, but the product cannot exit if it has been correctly metabolized, that is if the electron transport chains are still metabolically active. The formazan crystals are subsequently solubilized in dimethyl sulfoxide (DMSO), thus causing the solution to color change from yellow to dark blue-violet. The assay was carried out following the method by Mosmann (1983), with some minor modifications. […] The absorbance of the colored solution was measured using a spectrophotometric reader for microplates (BioTek Instruments Inc., BadFriedrichshall, Germany) at a wavelength of 570 nm (reference wavelength at 630 nm). The data were expressed as a percentage of cell viability compared to control cells (ctr), according to the following formula: % cell viability/ctr = (Abssample/Absctr)*100. […]
substance,measurement,value
Zinc,cytotoxic activity on HACAT cells,significant (p<0.05) cytotoxic activity
